Measured values published in patent publication US20250171438A1 (Agios Pharmaceuticals, Inc., priority 2022, published 2025).

The compounds below were run against T1, human PAH with the R408W mutation (Homo sapiens, UniProt P00439, R408W) (assay: Cell Based Phenylalanine Flux Assay). Settings: A375 cells expressing human R408W PAH; 24 hrs compound incubation; 13C-Tyrosine by LC-MS; average where tested multiple times; read-out: AC50.
T1 construct: expressed in transfected cells
T1 sequence (P00439 1-452 R408W): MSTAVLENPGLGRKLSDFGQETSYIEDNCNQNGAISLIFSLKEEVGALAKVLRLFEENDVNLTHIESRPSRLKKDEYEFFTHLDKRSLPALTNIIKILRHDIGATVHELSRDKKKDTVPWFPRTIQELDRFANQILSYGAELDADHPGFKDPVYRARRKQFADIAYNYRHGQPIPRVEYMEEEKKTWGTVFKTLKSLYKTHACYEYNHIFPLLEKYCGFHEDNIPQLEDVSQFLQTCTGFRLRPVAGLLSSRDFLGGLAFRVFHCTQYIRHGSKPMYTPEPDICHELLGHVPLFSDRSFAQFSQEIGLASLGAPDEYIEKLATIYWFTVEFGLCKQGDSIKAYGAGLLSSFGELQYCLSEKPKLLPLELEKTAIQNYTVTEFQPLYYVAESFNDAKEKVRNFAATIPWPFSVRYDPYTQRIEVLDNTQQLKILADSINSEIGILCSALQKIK

AC50	Compound
500 to 1000 nM	O=C(c1ccn2ncccc12)N1CCc2[nH]cnc2[C@H]1c1nc2ccccc2s1 [Example 1529]
> 5000 nM	O=C(c1ccn2ncccc12)N1CCc2[nH]cnc2[C@@H]1c1nc2ccccc2s1 [Example 1530, (R)-(4-(benzo[d]thiazol-2-yl)-6,7-dihydro-1H-imidazo[4,5-c]pyridin-5(4H)-yl)(pyrrolo[1,2-b]pyridazin-5-yl)methanone]
< 500 nM	Cc1ocnc1CC(=O)N1CCc2[nH]cnc2[C@H]1c1nc2ccccc2s1 [Example 1531]
> 5000 nM	Cc1ocnc1CC(=O)N1CCc2[nH]cnc2[C@@H]1c1nc2ccccc2s1 [Example 1532, (R)-1-(4-(benzo[d]thiazol-2-yl)-6,7-dihydro-1H-imidazo[4,5-c]pyridin-5(4H)-yl)-2-(5-methyloxazol-4-yl)ethanone]
< 500 nM	Nc1nc(C(F)(F)F)c(C(=O)N2CCc3[nH]cnc3[C@H]2c2nc3ccccc3s2)o1 [Example 1533]
500 to 1000 nM	Nc1nc(C(F)(F)F)c(C(=O)N2CCc3[nH]cnc3[C@@H]2c2nc3ccccc3s2)o1 [Example 1534, (R)-(2-amino-4-(trifluoromethyl)oxazol-5-yl)(4-(benzo[d]thiazol-2-yl)-6,7-dihydro-1H-imidazo[4,5-c]pyridin-5(4H)-yl)methanone]
< 500 nM	O=C(c1oc(-c2ccccn2)nc1C1CC1)N1CCc2[nH]cnc2[C@H]1c1nc2c(F)cccc2s1 [Example 1535]
1000 to 5000 nM	O=C(c1oc(-c2ccccn2)nc1C1CC1)N1CCc2[nH]cnc2[C@@H]1c1nc2c(F)cccc2s1 [Example 1536, (R)-(4-cyclopropyl-2-(pyridin-2-yl)oxazol-5-yl)(4-(4-fluorobenzo[d]thiazol-2-yl)-6,7-dihydro-1H-imidazo[4,5-c]pyridin-5(4H)-yl)methanone]
< 500 nM	CC(C)(O)c1nc(C2CC2)c(C(=O)N2CCc3[nH]cnc3[C@H]2c2nc3c(F)cccc3s2)o1 [Example 1537, (S)-(4-cyclopropyl-2-(2-hydroxypropan-2-yl)oxazol-5-yl)(4-(4-fluorobenzo[d]thiazol-2-yl)-6,7-dihydro-1H-imidazo[4,5-c]pyridin-5(4H)-yl)methanone]
1000 to 5000 nM	CC(C)(O)c1nc(C2CC2)c(C(=O)N2CCc3[nH]cnc3[C@@H]2c2nc3c(F)cccc3s2)o1 [Example 1538, (R)-(4-cyclopropyl-2-(2-hydroxypropan-2-yl)oxazol-5-yl)(4-(4-fluorobenzo[d]thiazol-2-yl)-6,7-dihydro-1H-imidazo[4,5-c]pyridin-5(4H)-yl)methanone]
< 500 nM	O=C(c1ocnc1C(F)F)N1CCc2[nH]cnc2[C@H]1c1nc2ccccc2s1 [Example 1539]
< 500 nM	O=C(c1ocnc1C(F)F)N1CCc2[nH]cnc2[C@@H]1c1nc2ccccc2s1 [Example 1540, (R)-(4-(benzo[d]thiazol-2-yl)-6,7-dihydro-1H-imidazo[4,5-c]pyridin-5(4H)-yl)(4-(difluoromethyl)oxazol-5-yl)methanone]
< 500 nM	CC(C)(O)c1nc(C(F)(F)F)c(C(=O)N2CCc3[nH]cnc3[C@H]2c2nc3c(F)cccc3s2)o1 [Example 1541, (S)-(4-(4-fluorobenzo[d]thiazol-2-yl)-6,7-dihydro-1H-imidazo[4,5-c]pyridin-5(4H)-yl)(2-(2-hydroxypropan-2-yl)-4-(trifluoromethyl)oxazol-5-yl)methanone]
< 500 nM	CC(C)(O)c1nc(C(F)(F)F)c(C(=O)N2CCc3[nH]cnc3[C@@H]2c2nc3c(F)cccc3s2)o1 [Example 1542, (R)-(4-(4-fluorobenzo[d]thiazol-2-yl)-6,7-dihydro-1H-imidazo[4,5-c]pyridin-5(4H)-yl)(2-(2-hydroxypropan-2-yl)-4-(trifluoromethyl)oxazol-5-yl)methanone]
< 500 nM	CC(C)(O)c1nc(C2CC2)c(C(=O)N2CCc3[nH]cnc3[C@H]2c2nc3ccccc3s2)o1 [Example 1543]
